Measurements: patent US20160297851A1, “BROAD SPECTRUM […]” (priority 2012, published 2016)
In brackets after ≈: the same amount, converted by molar mass. Where two headings read alike, the source gives them in different places.

How the values were obtained:
[1] = test system: human HeLa 229 cells; details: none observed up to the highest concentration examined
[2] = test system: Clostridium difficile; assay: microbe, parasite or virus in culture; type: cell-based; details: Clostridioides difficile
[3] = test system: Lactobacillus plantarum ATCC 8014; assay: microbe, parasite or virus in culture; type: cell-based; details: Lactiplantibacillus plantarum, ATCC8014
[4] = test system: Clostridium perfringens; assay: microbe, parasite or virus in culture; type: cell-based
[5] = test system: Corynebacterium glutamicum DSM 44475; assay: microbe, parasite or virus in culture; type: cell-based; details: DSM44475
[6] = test system: S. aureus Rosenbach 328; assay: microbe, parasite or virus in culture; type: cell-based; details: Staphylococcus aureus; MRSA strain
[7] = test system: wild type E. coli MG1655; assay: microbe, parasite or virus in culture; type: cell-based, Escherichia coli
[8] = test system: Rhodococcus opacus DSM 1069; assay: microbe, parasite or virus in culture; type: cell-based
[9] = target: full-length P29S mutant S. aureus SPase (Ser-variant) (Staphylococcus aureus, UniProt P0A070, P29S); assay: Equilibrium binding, arylomycin fluorescence
[10] = test system: Enterococcus faecalis; assay: microbe, parasite or virus in culture; type: cell-based
[11] = test system: Lactococcus lactis; assay: microbe, parasite or virus in culture; type: cell-based; details: several values = different isolates/subspecies
[12] = test system: Streptococcus agalactiae COH-1; assay: microbe, parasite or virus in culture; type: cell-based; details: Streptococcus agalactiae, COH1
[13] = test system: lepB(P29S) S. aureus 8325; assay: microbe, parasite or virus in culture; type: cell-based, Staphylococcus aureus; details: Table 3, P3 position derivatives; unit not given
[14] = target: P84S variant of truncated E. coli SPase (Escherichia coli, UniProt P00803, P84S); assay: Equilibrium binding, arylomycin fluorescence; details: micelles; average of three independent experiments
[15] = test system: Helicobacter pylori SS1; assay: microbe, parasite or virus in culture; type: cell-based; details: amount for a 1000-fold decrease in viable cells
[16] = test system: spsB(S29P) S. epidermidis RP62A; assay: microbe, parasite or virus in culture; type: cell-based, Staphylococcus epidermidis
[17] = test system: Clostridium bolteae; assay: microbe, parasite or virus in culture; type: cell-based; details: Enterocloster bolteae
[18] = test system: wild type S. aureus 8325; assay: microbe, parasite or virus in culture; type: cell-based, Staphylococcus aureus
[19] = test system: Bacteroides fragilis; assay: microbe, parasite or virus in culture; type: cell-based
[20] = test system: Streptococcus pyogenes M1-5448; assay: microbe, parasite or virus in culture; type: cell-based
[21] = test system: Bacillus subtilis 168; assay: microbe, parasite or virus in culture; type: cell-based
[22] = target: truncated wild type E. coli SPase (Escherichia coli, UniProt P00803); assay: Equilibrium binding, arylomycin fluorescence; details: micelles; average of three independent experiments
[23] = target: full-length wild type S. aureus SPase (Pro-variant) (Staphylococcus aureus, UniProt P0A070); assay: Equilibrium binding, arylomycin fluorescence
[24] = test system: Chlamydia trachomatis; assay: microbe, parasite or virus in culture; type: cell-based; details: eradication from human HeLa 229 cells, 24 hours
[25] = test system: S. aureus COL; assay: microbe, parasite or virus in culture; type: cell-based; details: Staphylococcus aureus
[26] = test system: Staphylococcus aureus; type: cell-based; details: several values = heterogeneity within different strains
[27] = test system: Rhodococcus erythropolis; assay: microbe, parasite or virus in culture; type: cell-based
[28] = test system: wild type S. epidermidis RP62A; assay: microbe, parasite or virus in culture; type: cell-based, Staphylococcus epidermidis; details: for MIC: Sensitive strain (SPase without the resistance-conferring Pro)
[29] = test system: lepB(P84L) P. aeruginosa PAO1; assay: microbe, parasite or virus in culture; type: cell-based, Pseudomonas aeruginosa
[30] = test system: E. coli and P. aeruginosa serine mutants; assay: MIC after permeabilizing with polymyxin B nonapeptide; type: cell-based
[31] = test system: Yersinia pestis Kim+6; assay: microbe, parasite or virus in culture; type: cell-based
[32] = test system: Streptococcus pneumoniae R800; assay: microbe, parasite or virus in culture; type: cell-based
[33] = test system: lepB(P84L) E. coli MG1655; assay: microbe, parasite or virus in culture; type: cell-based, Escherichia coli; details: Table 3, P3 position derivatives; unit not given
[34] = test system: Lactobacillus gasseri ATCC 19992; assay: microbe, parasite or virus in culture; type: cell-based; details: ATCC19992
[35] = test system: Prevotella copris; assay: microbe, parasite or virus in culture; type: cell-based
[36] = test system: Brevibacillus brevis ATCC 8246; assay: microbe, parasite or virus in culture; type: cell-based; details: ATCC8246
[37] = test system: Staphylococcus haemolyticus; assay: microbe, parasite or virus in culture; type: cell-based
[38] = test system: Lactobacillus acidophilus ATCC 4356; assay: microbe, parasite or virus in culture; type: cell-based; details: ATCC4356
[39] = Staphylococcus epidermidis, read-out: MIC
[40] = Table 3, P3 position derivatives, unit not given

Question: `CCCCCCCCCCCCCCCC(=O)N(C)[C@H](CO)C(=O)N[C@H](C)C(=O)NCC(=O)N(C)[C@@H]1C(=O)N[C@@H](C)C(=O)N[C@H](C(=O)O)Cc2ccc(O)c(c2)-c2cc1ccc2O` [Arylomycin C16, arylomycin C16] was tested. Which “concentration with adverse effects on the human cells” value [1] did it give?
Answer: Its value is over 20000 ng/mL.

Question: And the MIC [2]?
Answer: The MIC was over 16 µg/mL.

Question: What about the MIC [3] of the same compound?
Answer: The MIC was over 128 µg/mL.

Question: What about the MIC [4] of the same compound?
Answer: The MIC was over 16 µg/mL.

Question: What about the MIC [5] of the same compound?
Answer: Its MIC is 2 µg/mL (≈ 2.27 µM).

Question: And the MIC [6]?
Answer: Its MIC is 25 µg/mL (≈ 28.4 µM).

Question: What about the MIC ([7]; Escherichia coli, MG1655, Resistant strain (wild type), read-out: MIC) of the same compound?
Answer: Its MIC is over 64 µg/mL.

Question: And the MIC ([7]; Resistant strain (wild type))?
Answer: Its MIC is over 128 µg/mL.

Question: What about the MIC [8] of the same compound?
Answer: Its MIC is 2 µg/mL (≈ 2.27 µM).

Question: What about the MIC ([8]; Rhodococcus opacus, DSM1069, read-out: MIC) of the same compound?
Answer: The MIC was 1 µg/mL (≈ 1.13 µM).

Question: What about the Kd [9] of the same compound?
Answer: The Kd was 130 ± 53 nM.

Question: And the MIC [10]?
Answer: Its MIC is over 64 µg/mL.

Question: What about the MIC [11] of the same compound?
Answer: Its MIC is 16 µg/mL (≈ 18.2 µM).

Question: And the MIC [12]?
Answer: The MIC was over 128 µg/mL.

Question: And the “minimal inhibitory concentration (MIC)” value [13]?
Answer: The value was 4.

Question: And the Kd [14]?
Answer: The Kd was 39 ± 15 nM.

Question: What about the MIC ([15]; Helicobacter pylori, SS1, read-out: MIC) of the same compound?
Answer: The MIC was 4 µg/mL (≈ 4.54 µM).

Question: And the MIC [15]?
Answer: Its MIC is 4 µg/mL (≈ 4.54 µM).

Question: What about the “fold elevated MIC compared to the wild type strain” value ([16]; Ser to Pro mutation at position 29 of SpsIB) of the same compound?
Answer: The value was 32 fold.

Question: What about the MIC [16, 39] of the same compound?
Answer: Its MIC is 8 µg/mL (≈ 9.08 µM).

Question: What about the MIC [17] of the same compound?
Answer: The MIC was over 16 µg/mL.

Question: And the activity in words [18]?
Answer: The activity in words was “no activity”.

Question: What about the MIC ([18]; Staphylococcus aureus, Resistant strain (wild type), read-out: MIC) of the same compound?
Answer: Its MIC is over 64 µg/mL.

Question: What about the MIC [19] of the same compound?
Answer: The MIC was over 16 µg/mL.

Question: What about the MIC [20] of the same compound?
Answer: The MIC was 16 µg/mL (≈ 18.2 µM).

Question: And the MIC ([20]; Streptococcus pyogenes, M15448, read-out: MIC)?
Answer: The MIC was 8 µg/mL (≈ 9.08 µM).

Question: And the MIC ([20]; listed as arylomycin A-C16)?
Answer: Its MIC is 8 µg/mL (≈ 9.08 µM).

Question: What about the MIC [21] of the same compound?
Answer: Its MIC is over 128 µg/mL.

Question: And the Kd [22]?
Answer: The Kd was 979 ± 69 nM.

Question: And the Kd [23]?
Answer: Its Kd is 1280 ± 278 nM.

Question: And the MIC [24]?
Answer: The MIC was 6 µg/mL (≈ 6.81 µM).

Question: What about the MIC [25] of the same compound?
Answer: Its MIC is 12 µg/mL (≈ 13.6 µM).

Question: What about the MIC [26] of the same compound?
Answer: Its MIC is 16 to 32 µg/mL.

Question: And the MIC [27]?
Answer: The MIC was 16 µg/mL (≈ 18.2 µM).

Question: And the MIC [28]?
Answer: The MIC was 0.25 µg/mL (≈ 0.284 µM).

Question: And the MIC ([28]; listed as arylomycin C16)?
Answer: The MIC was 0.25 µg/mL (≈ 0.284 µM).

Question: What about the MIC [28, 39] of the same compound?
Answer: Its MIC is 0.5 µg/mL (≈ 0.567 µM).

Question: What about the “minimal inhibitory concentration (MIC)” value [28, 40] of the same compound?
Answer: The value was 0.25.

Question: And the MIC ([29]; Pseudomonas aeruginosa, PAO1, Sensitive (genetically sensitized) strain, read-out: MIC)?
Answer: The MIC was 8 µg/mL.

Question: And the “minimal inhibitory concentration (MIC)” value [29, 40]?
Answer: Its value is 4.

Question: And the “fold decrease of MIC on permeabilization” value [30]?
Answer: Its value is at most 4 fold.

Question: What about the MIC [31] of the same compound?
Answer: Its MIC is 4 µg/mL (≈ 4.54 µM).

Question: And the MIC [32]?
Answer: The MIC was 16 µg/mL (≈ 18.2 µM).

Question: And the MIC ([32]; Streptococcus pneumoniae, R800, read-out: MIC)?
Answer: Its MIC is 8 µg/mL (≈ 9.08 µM).

Question: And the MIC ([32]; listed as arylomycin A-C16)?
Answer: The MIC was 8 µg/mL (≈ 9.08 µM).

Question: And the “minimal inhibitory concentration (MIC)” value [33]?
Answer: Its value is 2.

Question: What about the MIC [34] of the same compound?
Answer: The MIC was over 128 µg/mL.

Question: And the MIC [35]?
Answer: The MIC was over 16 µg/mL.

Question: And the MIC [36]?
Answer: The MIC was over 64 µg/mL.

Question: And the MIC [37]?
Answer: Its MIC is 2 µg/mL (≈ 2.27 µM).

Question: And the MIC [38]?
Answer: Its MIC is over 128 µg/mL.
